According to article PMC4965013, “Open Source Drug Discovery with the Malaria Box Compound Collection for Neglected Diseases and Beyond” (PLoS Pathogens, 2016):

Experiments:
P. falciparum = assay: EC50 listed in S2 Table Metabolomics (used to set the concentration tested); type: cell-based; settings: Plasmodium falciparum; EC50 used for Factor_XEC50 in metabolomics; read-out: EC50_nM
[1] = test system: P. falciparum 3D7 trophozoites; assay: Metabolomic fingerprint profiling LC-MS; type: cell-based, Plasmodium falciparum; design: UDP-D-glucose / ADP-D-glucose: unit not given here; settings: for Acetyllysine / N-acetyl-L-ornithine / N-carbamoyl-L-aspartate / NADPH / dAMP / dCMP / dTDP / dTMP / dTTP / dihydroorotate / orotate / DLH / DLS/SDL/SID / PD / PEE / PVNF / 3-phosphoglycerate / ADP-D-glucose / ATP / CDP / D-sedoheptulose-1/7-phosphate / FAD / GMP / NAD+ / NADP+ / Octoluse Bisphosphate / Pyroglutamic acid / UDP-D-glucose / UDP-D-glucuronate / UDP-N-acetyl-glucosamine / UDP / UMP / UTP / a-ketoglutarate / citrate/isocitrate / cytidine / dATP / dGMP/AMP / fumarate / glucose-1/6-phosphate / glycerate / guanine / guanosine / hypoxanthine / indole / inosine / nicotinate / ornithine / phosphoenolpyruvate / pyruvate / ribose-phosphate / sarcosine/alanine / sn-glycerol-3-phosphate / succinate/methylmalonic acid / uridine / xanthosine: S2 Table Metabolomics; for Acetyllysine: metabolite Acetyllysine; for N-acetyl-L-ornithine: metabolite N-acetyl-L-ornithine; for N-carbamoyl-L-aspartate: metabolite N-carbamoyl-L-aspartate; for NADPH: metabolite NADPH; for dAMP: metabolite dAMP; for dCMP: metabolite dCMP; for dTDP: metabolite dTDP; for dTMP: metabolite dTMP; for dTTP: metabolite dTTP; for dihydroorotate: metabolite dihydroorotate; for orotate: metabolite orotate; for DLH: peptide DLH; for DLS/SDL/SID: peptide DLS/SDL/SID; for PD: peptide PD; for PEE: peptide PEE; for PVNF: peptide PVNF; for 3-phosphoglycerate: metabolite 3-phosphoglycerate; for ADP-D-glucose: metabolite ADP-D-glucose; for ATP: metabolite ATP; for CDP: metabolite CDP; for CDP / D-sedoheptulose-1/7-phosphate / GMP / Octoluse Bisphosphate / UDP / UMP / UTP / citrate/isocitrate / dGMP/AMP / fumarate / glucose-1/6-phosphate / glycerate / guanine / guanosine / inosine / pyruvate / sarcosine/alanine / succinate/methylmalonic acid / uridine / xanthosine: change in metabolite level after compound treatment; for D-sedoheptulose-1/7-phosphate: metabolite D-sedoheptulose-1/7-phosphate; for FAD: metabolite FAD; for GMP: metabolite GMP; for NAD+: metabolite NAD+; for NADP+: metabolite NADP+; for Octoluse Bisphosphate: metabolite Octoluse Bisphosphate; for Pyroglutamic acid: metabolite Pyroglutamic acid; for UDP-D-glucose: metabolite UDP-D-glucose; for UDP-D-glucuronate: metabolite UDP-D-glucuronate; for UDP-N-acetyl-glucosamine: metabolite UDP-N-acetyl-glucosamine; for UDP: metabolite UDP; for UMP: metabolite UMP; for UTP: metabolite UTP; for a-ketoglutarate: metabolite a-ketoglutarate; for citrate/isocitrate: metabolite citrate/isocitrate; for cytidine: metabolite cytidine; for dATP: metabolite dATP; for dGMP/AMP: metabolite dGMP/AMP; for fumarate: metabolite fumarate; for glucose-1/6-phosphate: metabolite glucose-1/6-phosphate; for glycerate: metabolite glycerate; for guanine: metabolite guanine; for guanosine: metabolite guanosine; for hypoxanthine: metabolite hypoxanthine; for indole: metabolite indole; for inosine: metabolite inosine; for 2_3-Diphosphoglyceric acid / 4-phosphopantothenate / 6-phospho-D-gluconate / FMN / IMP / Pyrophosphate / Sedoheptoluse bisphosphate / cyclic-AMP / glutathione disulfide / lactate / myo-inositol: metabolite level change after treatment; for nicotinate: metabolite nicotinate; for ornithine: metabolite ornithine; for phosphoenolpyruvate: metabolite phosphoenolpyruvate; for pyruvate: metabolite pyruvate; for ribose-phosphate: metabolite ribose-phosphate; for sarcosine/alanine: metabolite sarcosine/alanine; for sn-glycerol-3-phosphate: metabolite sn-glycerol-3-phosphate; for succinate/methylmalonic acid: metabolite succinate/methylmalonic acid; for uridine: metabolite uridine; for xanthosine: metabolite xanthosine

## COc1ccc(NC(=O)C2c3ccccc3C(=O)N(CC(C)C)C2c2cccs2)cc1Cl (stereo not shown) [MMV000642]
P. falciparum
  EC50: 20.2 nM
[1]
  Acetyllysine: -5.193
  N-acetyl-L-ornithine: -3.747
  N-carbamoyl-L-aspartate: -2.41
  NADPH: -0.3813
  dAMP: 2.141
  dCMP: 1.187
  dTDP: 1.699
  dTMP: 3.58
  dTTP: 1.5
  dihydroorotate: -2.555
  orotate: -0.348
  DLH: -5.968
  DLS/SDL/SID: -3.9977
  PD: -2.5956
  PEE: -3.5386
  PVNF: -6.505
  3-phosphoglycerate: -0.2719
  ADP-D-glucose: -0.1906
  ATP: -1.554
  CDP: -0.7723
  D-sedoheptulose-1/7-phosphate: -1.211
  FAD: -1.709
  GMP: -1.9066
  NAD+: -0.5171
  NADP+: -0.1638
  Octoluse Bisphosphate: -2.57
  Pyroglutamic acid: 0.06474
  UDP-D-glucose: -0.2074
  UDP-D-glucuronate: -0.1541
  UDP-N-acetyl-glucosamine: -0.04904
  UDP: -1.27
  UMP: -0.4497
  UTP: -1.308
  a-ketoglutarate: -0.0007361
  citrate/isocitrate: -0.3751
  cytidine: 0.1777
  dATP: 0.01445
  dGMP/AMP: -0.6011
  fumarate: -0.3143
  glucose-1/6-phosphate: -1.542
  glycerate: -0.9599
  guanine: 0.2177
  guanosine: 0.8357
  hypoxanthine: -0.2894
  indole: -0.1989
  inosine: 0.04742
  2_3-Diphosphoglyceric acid: -1.07
  4-phosphopantothenate: -0.7331
  6-phospho-D-gluconate: -0.5035
  FMN: -0.2051
  IMP: -0.1621
  Pyrophosphate: -1.141
  Sedoheptoluse bisphosphate: -1.388
  cyclic-AMP: -0.8649
  glutathione disulfide: -0.7288
  lactate: -1.097
  myo-inositol: -1.4412
  nicotinate: 0.5786
  ornithine: 0.1669
  phosphoenolpyruvate: 0.08762
  pyruvate: -0.8949
  ribose-phosphate: -0.3617
  sarcosine/alanine: -1.783
  sn-glycerol-3-phosphate: 1.156
  succinate/methylmalonic acid: 0.05807
  uridine: 1.2
  xanthosine: -1.585

## COc1ccc(NC(=O)C2c3ccccc3C(=O)N(CC(C)C)C2c2cccs2)cc1 (stereo not shown) [MMV000662]
P. falciparum
  EC50: 36.7 nM
[1]
  Acetyllysine: -4.572
  N-acetyl-L-ornithine: -3.381
  N-carbamoyl-L-aspartate: -2.466
  NADPH: 2.406
  dAMP: 2.2996
  dCMP: 1.058
  dTDP: 1.444
  dTMP: 3.186
  dTTP: 1.443
  dihydroorotate: -3.591
  orotate: -0.05867
  DLH: -6.2862
  DLS/SDL/SID: -4.745
  PD: -2.987
  PEE: -3.507
  PVNF: -6.642
  3-phosphoglycerate: 0.247
  ADP-D-glucose: -0.1909
  ATP: -1.375
  CDP: -0.7124
  D-sedoheptulose-1/7-phosphate: -1.119
  FAD: -1.511
  GMP: -1.853
  NAD+: -0.4043
  NADP+: -0.01609
  Octoluse Bisphosphate: -2.194
  Pyroglutamic acid: 0.3441
  UDP-D-glucose: -0.06213
  UDP-D-glucuronate: -0.01201
  UDP-N-acetyl-glucosamine: 0.08846
  UDP: -1.277
  UMP: -0.622
  UTP: -1.315
  a-ketoglutarate: 0.4405
  citrate/isocitrate: 0.05797
  cytidine: 0.7559
  dATP: 0.06895
  dGMP/AMP: -0.6193
  fumarate: -0.1354
  glucose-1/6-phosphate: -1.428
  glycerate: -0.4765
  guanine: 0.7318
  guanosine: 1.459
  hypoxanthine: 0.3686
  indole: 0.3717
  inosine: 0.5573
  2_3-Diphosphoglyceric acid: -1.11
  4-phosphopantothenate: -0.6744
  6-phospho-D-gluconate: -0.3651
  FMN: 0.04988
  IMP: -0.0547
  Pyrophosphate: -1.578
  Sedoheptoluse bisphosphate: -1.096
  cyclic-AMP: -0.7789
  glutathione disulfide: -0.5026
  lactate: -0.6017
  myo-inositol: -0.9859
  nicotinate: 1.185
  ornithine: 0.01334
  phosphoenolpyruvate: 0.5172
  pyruvate: -1.672
  ribose-phosphate: -0.9727
  sarcosine/alanine: -1.6779
  sn-glycerol-3-phosphate: 0.8186
  succinate/methylmalonic acid: 0.3034
  uridine: 1.71
  xanthosine: -1.3795
